According to patent US20020111274A1, “1-alkyl-3-[1-(substituted phenyl) benzotriazol-6-yl] uracils” (BASF Aktiengesellschaft, priority 2000, published 2002):

What was measured:
Set-up in all cases: scale not given here
[1] = tested on: ZEAMX Corn, Field; experiment: Postemergence herbicidal evaluation, ZEAMX; format: in vivo, Zea mays, L. (Sammel-Bezeichnung); details: postemergence spray, rated about two-three weeks after treatment
In short: (§1)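 For this test, compound in an 80/20 acetone/water vehicle with 1.0% seed oil was sprayed over two-week-old seedlings at about 0.006 to 0.400 kg per hectare. Injury was assessed visually two to three weeks on.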

[2] = tested on: IPOHE Morningglory, Ivyleaf; experiment: Postemergence herbicidal evaluation, IPOHE; format: in vivo, Ipomoea hederacea, (L.) Jacq.; details: postemergence spray, rated about two-three weeks after treatment
In short: as §1

[3] = tested on: ORYSAT Rice, Tebonnet; experiment: Postemergence herbicidal evaluation, ORYSAT; format: in vivo, Oryza sativa, (L.); details: postemergence spray, rated about two-three weeks after treatment
In short: as §1

[4] = tested on: ABUTH Velvetleaf; experiment: Postemergence herbicidal evaluation, ABUTH; format: in vivo, Abutilon theophrasti, Medic.; details: postemergence spray, rated about two-three weeks after treatment
In short: as §1

[5] = tested on: CASOB Sicklepod; experiment: Preemergence herbicidal evaluation, CASOB; format: in vivo, Cassia obtusifolia, L.; details: preemergence
In short: (§2)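 Seeds mixed with potting soil in cups, then sprayed preemergence with aqueous acetone test solution at about 0.013 to 0.800 kg per hectare equivalent. Cups kept under standard greenhouse care; plants rated on a visual scale four to five weeks after treatment.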

[6] = tested on: IPOHE Morningglory, Ivyleaf; experiment: Preemergence herbicidal evaluation, IPOHE; format: in vivo, Ipomoea hederacea, (L.) Jacq.; details: preemergence
In short: as §2

[7] = tested on: SETVI Foxtail, Green; experiment: Preemergence herbicidal evaluation, SETVI; format: in vivo, Setaria viridis, (L.) Beau; details: preemergence
In short: as §2

[8] = tested on: ECHOG Barnyardgrass; experiment: Preemergence herbicidal evaluation, ECHOG; format: in vivo, Echinochloa crus-galli, (L.) Beau; details: preemergence
In short: as §2

[9] = tested on: GLXMAW Soybean, Williams; experiment: Preemergence herbicidal evaluation, GLXMAW; format: in vivo, Glycine max, (L.) Merr. cv Williams; details: preemergence
In short: as §2

[10] = tested on: TRZAWR Wheat, Winter, cv Riband; experiment: Postemergence herbicidal evaluation, TRZAWR; format: in vivo, Triticum aestivum; details: postemergence spray, rated about two-three weeks after treatment
In short: as §1

[11] = tested on: GALAP Galium; experiment: Preemergence herbicidal evaluation, GALAP; format: in vivo, Galium aparine; details: preemergence
In short: as §2

[12] = tested on: AMBEL Ragweed, Common; experiment: Preemergence herbicidal evaluation, AMBEL; format: in vivo, Ambrosia artemisifolia, L.; details: preemergence
In short: as §2

Cc1ccc(O)cc1-n1nnc2cc(F)c(-n3c(=O)cc(C(F)(F)F)n(C)c3=O)cc21 [Example 32]
3.0: Postemergence herbicidal rating TRZAWR ([10]; 0.062 kg/ha)
1.0: Postemergence herbicidal rating ORYSAT ([3]; 0.008 kg/ha) | GLXMAW herbicidal rating ([9]; rate 0.125 kg/ha) | Postemergence herbicidal rating TRZAWR ([10]; 0.008 kg/ha)
2.0: Postemergence herbicidal rating ZEAMX ([1]; 0.008 kg/ha) | Postemergence herbicidal rating ORYSAT ([3]; 0.062 kg/ha)
0.0: Postemergence herbicidal rating IPOHE ([2]; 0.008 kg/ha) | Postemergence herbicidal rating IPOHE ([2]; 0.016 kg/ha) | Postemergence herbicidal rating IPOHE ([2]; 0.032 kg/ha) | Postemergence herbicidal rating IPOHE ([2]; 0.062 kg/ha) | Postemergence herbicidal rating ABUTH ([4]; 0.008 kg/ha) | Postemergence herbicidal rating ABUTH ([4]; 0.016 kg/ha) | Postemergence herbicidal rating ABUTH ([4]; 0.032 kg/ha) | CASOB herbicidal rating ([5]; rate 0.016 kg/ha) | CASOB herbicidal rating ([5]; rate 0.032 kg/ha) | CASOB herbicidal rating ([5]; rate 0.062 kg/ha) | CASOB herbicidal rating ([5]; rate 0.125 kg/ha) | IPOHE herbicidal rating ([6]; rate 0.016 kg/ha) | IPOHE herbicidal rating ([6]; rate 0.032 kg/ha) | IPOHE herbicidal rating ([6]; rate 0.062 kg/ha) | IPOHE herbicidal rating ([6]; rate 0.125 kg/ha) | SETVI herbicidal rating ([7]; rate 0.016 kg/ha) | SETVI herbicidal rating ([7]; rate 0.032 kg/ha) | SETVI herbicidal rating ([7]; rate 0.062 kg/ha) | SETVI herbicidal rating ([7]; rate 0.125 kg/ha) | ECHCG herbicidal rating ([8]; rate 0.016 kg/ha) | ECHCG herbicidal rating ([8]; rate 0.032 kg/ha) | ECHCG herbicidal rating ([8]; rate 0.062 kg/ha) | ECHCG herbicidal rating ([8]; rate 0.125 kg/ha) | GLXMAW herbicidal rating ([9]; rate 0.016 kg/ha) | GLXMAW herbicidal rating ([9]; rate 0.032 kg/ha) | GLXMAW herbicidal rating ([9]; rate 0.062 kg/ha) | GALAP herbicidal rating ([11]; rate 0.016 kg/ha) | GALAP herbicidal rating ([11]; rate 0.032 kg/ha) | GALAP herbicidal rating ([11]; rate 0.062 kg/ha) | AMBEL herbicidal rating ([12]; rate 0.016 kg/ha) | AMBEL herbicidal rating ([12]; rate 0.032 kg/ha) | AMBEL herbicidal rating ([12]; rate 0.062 kg/ha) | AMBEL herbicidal rating ([12]; rate 0.125 kg/ha)
4.0: Postemergence herbicidal rating ABUTH ([4]; 0.062 kg/ha)
1.5: Postemergence herbicidal rating ORYSAT ([3]; 0.016 kg/ha) | Postemergence herbicidal rating ORYSAT ([3]; 0.032 kg/ha)
2.5: Postemergence herbicidal rating ZEAMX ([1]; 0.016 kg/ha) | Postemergence herbicidal rating ZEAMX ([1]; 0.032 kg/ha) | Postemergence herbicidal rating ZEAMX ([1]; 0.062 kg/ha) | Postemergence herbicidal rating TRZAWR ([10]; 0.016 kg/ha) | Postemergence herbicidal rating TRZAWR ([10]; 0.032 kg/ha)
